We go through 5 compounds from publication PMC2949542 (Analytical biochemistry, 2010).

The target of assay [1] is T1, carbonic anhydrase II (CAII) (Bos taurus, UniProt P00921). The conditions noted are these: read-out: KD (μM) Biacore (8); benchmark study on Biacore platforms; cited from earlier work. For orientation: Surface plasmon resonance follows binding to a sensor surface in real time, without labels.
For assay [2], the target named is T1, carbonic anhydrase II (CAII). Put plainly: SPR. The conditions noted are these: for kon: read-out: ka.
For assay [3] the target is unchanged. Particulars: read-out: KD (μM) ProteOn (2); BioRad ProteOn XPR36; cited from earlier work.
Assay [4] shares this target. Put plainly: SPR standard injection, ADP over negative-control CAII surface. It is filed as binding. The conditions noted are these: standard injections, two-fold dilution series from 300 uM, 25 °C.

Where two headings read alike, the source gives them in different places.

T1 sequence (P00921 whole entry): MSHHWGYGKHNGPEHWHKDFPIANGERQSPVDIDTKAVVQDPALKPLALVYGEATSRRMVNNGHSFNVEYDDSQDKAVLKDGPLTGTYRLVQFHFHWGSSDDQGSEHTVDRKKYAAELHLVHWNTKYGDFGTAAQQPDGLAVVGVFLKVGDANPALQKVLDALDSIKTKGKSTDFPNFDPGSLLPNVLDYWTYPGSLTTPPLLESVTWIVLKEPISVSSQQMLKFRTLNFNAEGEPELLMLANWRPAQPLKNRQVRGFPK

`NS(=O)(=O)c1cccc(S(N)(=O)=O)c1` [1,3-Benzenedisulfonamide]: the dissociation constant (Kd) was 0.8 µM in assay [1], 0.613 µM in assay [2] and 0.64 µM in assay [3]. Also, in assay [2], the kon was 179000 M⁻¹ s⁻¹.

Take `NCc1ccc(S(N)(=O)=O)cc1` [4-(Aminomethyl)benzenesulfonamide]: the dissociation constant Kd was 3 µM in assay [1] and 5.2 µM in assay [2]. For the same compound, the kon in assay [2] worked out at 7300 M⁻¹ s⁻¹.

In the case of `Nc1ncnc2c1ncn2[C@@H]1O[C@H](COP(=O)(O)OP(=O)(O)O)[C@@H](O)[C@H]1O` [ADP, adenosine diphosphate], the “binding on negative-control CAII surface” value in assay [4] is on record as “no reliable ADP binding was observed”.

As for `NS(=O)(=O)c1ccccc1` [Benzenesulfonamide], the Kd in assay [1] was 0.8 µM; in assay [2], 0.97 µM; in assay [3], 1.1 µM. In addition, the kon in assay [2] was determined as 135000 M⁻¹ s⁻¹.

For `CN(C)c1cccc2c(S(N)(=O)=O)cccc12` [Dansylamide], the values for the Kd in assay [1] and in assay [3] were 0.4 µM and 0.8 µM, respectively.

For orientation: Kd means the free concentration of one partner at which half of the binding sites on the other are occupied at equilibrium, for simple one-to-one binding.
